Values quoted from earlier work in EP1151755B1, “Pharmaceutical compositions comprising cyclosporin as active ingredient” (Panacea Biotec Limited, priority 2000, dated 2001).

Tested on: normal epithelial tissue and Peyer's patch tissue of guinea pigs
Settings: in vitro; compared to the commercially available drinking solution

Choleic acid
factor by which absorption of Cyclosporine was raised: 5-6
